According to patent US12448368B2, “Indole compounds as androgen receptor modulators” (NIDO BIOSCIENCES, INC., priority 2020, dated 2025):

Target: T1, androgen receptor (AR) (Homo sapiens, UniProt P10275, T878A)
T1 construct: LNCaP cells expressing ARR2PB-FireflyLuc and CMV-RenillaLuc; endogenous in cells; host or cells: LNCaP cells carrying ARR2PB-FireflyLuc and CMV-RenillaLuc reporters
T1 sequence (P10275 1-920 T878A): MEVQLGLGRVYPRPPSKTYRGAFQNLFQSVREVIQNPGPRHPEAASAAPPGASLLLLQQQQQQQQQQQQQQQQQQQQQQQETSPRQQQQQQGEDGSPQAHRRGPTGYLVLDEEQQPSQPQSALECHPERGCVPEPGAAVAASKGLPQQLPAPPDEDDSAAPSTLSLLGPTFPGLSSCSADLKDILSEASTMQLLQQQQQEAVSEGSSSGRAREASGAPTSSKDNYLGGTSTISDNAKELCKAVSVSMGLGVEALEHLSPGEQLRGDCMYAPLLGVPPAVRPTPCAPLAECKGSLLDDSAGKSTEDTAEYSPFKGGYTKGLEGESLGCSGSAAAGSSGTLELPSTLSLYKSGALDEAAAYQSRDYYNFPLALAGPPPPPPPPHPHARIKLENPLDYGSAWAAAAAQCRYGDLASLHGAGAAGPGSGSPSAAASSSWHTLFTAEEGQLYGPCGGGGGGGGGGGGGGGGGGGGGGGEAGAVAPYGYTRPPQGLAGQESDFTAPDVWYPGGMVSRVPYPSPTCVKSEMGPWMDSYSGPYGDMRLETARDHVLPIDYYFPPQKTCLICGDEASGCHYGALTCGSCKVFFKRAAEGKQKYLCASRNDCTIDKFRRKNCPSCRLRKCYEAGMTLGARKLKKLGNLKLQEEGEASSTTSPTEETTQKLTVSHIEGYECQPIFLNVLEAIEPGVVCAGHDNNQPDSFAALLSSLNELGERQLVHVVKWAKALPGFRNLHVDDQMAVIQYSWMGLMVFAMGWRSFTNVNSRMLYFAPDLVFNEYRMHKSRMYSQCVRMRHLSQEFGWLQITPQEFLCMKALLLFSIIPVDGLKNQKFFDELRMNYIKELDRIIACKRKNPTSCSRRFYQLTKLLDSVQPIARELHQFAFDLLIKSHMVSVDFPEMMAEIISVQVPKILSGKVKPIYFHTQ
Test: AR reporter assay in LNCaP cells expressing ARR2PB-FireflyLuc and CMV-RenillaLuc, antagonist mode (% remaining activity, IC50)
Type: cell-based
Conditions: 48 h at 37° C., class symbols A-D, read-out: IC50
Method: LNCaP cells expressing ARR2PB-FireflyLuc and CMV-RenillaLuc were treated with indicated concentrations of test compounds, enzalutamide (negative control), or DHT (positive control)+/−0.5 nM DHT for 48 h at 37° C. […] Remaining activity (antagonist mode) was calculated as % Remaining Activity=100×[(Readsample−LCave)/(HCave−LCave)] where HC is cells treated with 0.5 nM DHT only and LC is cells treated with 10 uM enzalutamide+0.5 nM DHT. Activation (agonist mode) was calculated as % Activation=100×[(ReadSample−LCave)/(HCave−LCave)] where HC is cells treated with 1 uM DHT and LC is cells treated with DMSO. Dose response curves and IC50 values were calculated using non-linear regression analysis in XLfit.
The designation “A” indicates an IC50 value of >10 μM, “B” indicates an IC50 value between 1 μM and 10 μM; “C” indicates an IC50 value between 100 nM and 1 μM; and “D” indicates an IC50 value of less than 100 nM.

SMILES: CC1CCNc2ccc(-c3n[nH]c4cc(F)c(F)cc34)nc21 (single isomer, unassigned) [Compound 47]
- IC50: 100 to 1000 nM

SMILES: CC1CCNc2ccc(-c3n[nH]c4cc(F)c(F)cc34)nc21 (single isomer, unassigned) [Compound 48]
- IC50: < 100 nM

SMILES: c1ccc2nc(-c3n[nH]c4ccc(N5CCOCC5)cc34)ccc2c1 [Compound 1]
- IC50: 1000 to 10000 nM

SMILES: c1ccc2nc(-c3n[nH]c4cc(N5CCOCC5)ccc34)ccc2c1 [Compound 2]
- IC50: > 10000 nM

SMILES: CN(C)c1ccc2[nH]nc(-c3ccc4ccccc4n3)c2c1 [Compound 3]
- IC50: > 10000 nM

SMILES: CN(C)c1ccc2c(-c3ccc4ccccc4n3)n[nH]c2c1 [Compound 4]
- IC50: > 10000 nM

SMILES: c1cnc2ccc(-c3n[nH]c4ccccc34)nc2c1 [Compound 5]
- IC50: < 100 nM

SMILES: O=c1ccc2nc(-c3n[nH]c4ccccc34)ccc2[nH]1 [Compound 6]
- IC50: 1000 to 10000 nM

SMILES: c1ccc2c(-c3ccc4cnccc4n3)n[nH]c2c1 [Compound 7]
- IC50: 100 to 1000 nM

SMILES: c1ccc2c(-c3ccc4ccncc4n3)n[nH]c2c1 [Compound 8]
- IC50: < 100 nM

SMILES: c1ccc2c(-c3ccc4c(n3)CCCN4)n[nH]c2c1 [Compound 9]
- IC50: 100 to 1000 nM

SMILES: CN1CCOc2nc(-c3n[nH]c4ccccc34)ccc21 [Compound 10]
- IC50: > 10000 nM

SMILES: Fc1cc2[nH]nc(-c3ccc4c(n3)CCCN4)c2cc1F [Compound 11]
- IC50: 100 to 1000 nM

SMILES: COc1nccc2nc(-c3n[nH]c4ccccc34)ccc12 [Compound 12]
- IC50: < 100 nM

SMILES: CN1CCOc2nc(-c3n[nH]c4cc(F)c(F)cc34)ccc21 [Compound 13]
- IC50: 1000 to 10000 nM

SMILES: Fc1cc2[nH]nc(-c3cc4ccccc4nn3)c2cc1F [Compound 14]
- IC50: > 10000 nM

SMILES: COc1ccc2nc(-c3n[nH]c4ccccc34)ccc2n1 [Compound 16]
- IC50: > 10000 nM

SMILES: Cn1c(=O)ccc2nc(-c3n[nH]c4ccccc34)ccc21 [Compound 17]
- IC50: 1000 to 10000 nM

SMILES: Cn1ccc2nc(-c3n[nH]c4ccccc34)ccc2c1=O [Compound 18]
- IC50: 1000 to 10000 nM

SMILES: Cc1nccc2nc(-c3n[nH]c4ccccc34)ccc12 [Compound 19]
- IC50: < 100 nM

SMILES: c1ccc2c(-c3ccc4c(n3)CNCC4)n[nH]c2c1 [Compound 20]
- IC50: > 10000 nM

SMILES: CC(=O)N1CCc2ccc(-c3n[nH]c4ccccc34)nc2C1 [Compound 21]
- IC50: > 10000 nM

SMILES: NC1CCCc2nc(-c3n[nH]c4ccccc34)ccc21 (stereo not shown) [Compound 22]
- IC50: > 10000 nM

SMILES: CC(=O)NC1CCCc2nc(-c3n[nH]c4ccccc34)ccc21 (stereo not shown) [Compound 23]
- IC50: > 10000 nM

SMILES: CN1CCCc2nc(-c3n[nH]c4cc(F)c(F)cc34)ccc21 [Compound 24]
- IC50: 1000 to 10000 nM

SMILES: CC(=O)N1CCCc2nc(-c3n[nH]c4cc(F)c(F)cc34)ccc21 [Compound 25]
- IC50: 100 to 1000 nM

SMILES: Fc1cc2[nH]nc(-c3ccc4ncccc4n3)c2cc1F [Compound 26]
- IC50: < 100 nM

SMILES: Fc1cc2[nH]nc(-c3ccnc4cccnc34)c2cc1F [Compound 27]
- IC50: 1000 to 10000 nM

SMILES: O=c1[nH]ccc2nc(-c3n[nH]c4cc(F)c(F)cc34)ccc12 [Compound 28]
- IC50: 100 to 1000 nM

SMILES: Cn1ccc2nc(-c3n[nH]c4cc(F)c(F)cc34)ccc2c1=O [Compound 29]
- IC50: > 10000 nM

SMILES: Fc1cc2[nH]nc(-c3ccc4c(n3)CCNC4)c2cc1F [Compound 30]
- IC50: > 10000 nM

SMILES: CC(=O)N1CCc2nc(-c3n[nH]c4cc(F)c(F)cc34)ccc2C1 [Compound 31]
- IC50: > 10000 nM

SMILES: Fc1cc2[nH]nc(-c3ccc4c(n3)CNCC4)c2cc1F [Compound 32]
- IC50: > 10000 nM

SMILES: Fc1cc2[nH]nc(-c3ccc4c(-c5nnco5)c(F)ccc4n3)c2cc1F [Compound 33]
- IC50: 100 to 1000 nM

SMILES: Fc1cc2[nH]nc(-c3ccc4cc(F)c(-c5nnco5)cc4n3)c2cc1F [Compound 34]
- IC50: > 10000 nM

SMILES: Fc1cc2[nH]nc(-c3ccc4c(-c5nnco5)cccc4n3)c2cc1F [Compound 35]
- IC50: < 100 nM

SMILES: O=C(CO)N1CCCc2nc(-c3n[nH]c4cc(F)c(F)cc34)ccc21 [Compound 36]
- IC50: 1000 to 10000 nM

SMILES: COCC(=O)N1CCCc2nc(-c3n[nH]c4cc(F)c(F)cc34)ccc21 [Compound 37]
- IC50: > 10000 nM

SMILES: CNC(=O)N1CCCc2nc(-c3n[nH]c4cc(F)c(F)cc34)ccc21 [Compound 38]
- IC50: 1000 to 10000 nM

SMILES: Fc1cc2[nH]nc(-c3ccc4c(n3)COCC4)c2cc1F [Compound 39]
- IC50: 1000 to 10000 nM

SMILES: Fc1cc2[nH]nc(-c3ccc4c(n3)CCOC4)c2cc1F [Compound 40]
- IC50: 1000 to 10000 nM

SMILES: O=C1NCc2nc(-c3n[nH]c4cc(F)c(F)cc34)ccc21 [Compound 41]
- IC50: 1000 to 10000 nM

SMILES: CN1Cc2nc(-c3n[nH]c4cc(F)c(F)cc34)ccc2C1=O [Compound 42]
- IC50: 1000 to 10000 nM

SMILES: Cc1cc(F)cc2c(-c3ccc4c(n3)CCCN4)n[nH]c12 [Compound 43]
- IC50: 100 to 1000 nM

SMILES: Cc1cc2[nH]nc(-c3ccc4c(n3)CCCN4)c2cc1F [Compound 44]
- IC50: 100 to 1000 nM

SMILES: Cc1cc2c(-c3ccc4c(n3)CCCN4)n[nH]c2cc1F [Compound 45]
- IC50: 100 to 1000 nM

SMILES: CC1CCNc2ccc(-c3n[nH]c4cc(F)c(F)cc34)nc21 (stereo not shown) [Compound 46]
- IC50: < 100 nM

SMILES: CC1CCNc2cnc(-c3n[nH]c4cc(F)c(F)cc34)cc21 (stereo not shown) [Compound 49]
- IC50: 1000 to 10000 nM

SMILES: CC1(C)CCNc2ccc(-c3n[nH]c4cc(F)c(F)cc34)nc21 [Compound 50]
- IC50: 100 to 1000 nM

SMILES: CC1NC(=O)c2ccc(-c3n[nH]c4cc(F)c(F)cc34)nc21 (stereo not shown) [Compound 51]
- IC50: 100 to 1000 nM

SMILES: CC1(C)NC(=O)c2ccc(-c3n[nH]c4cc(F)c(F)cc34)nc21 [Compound 52]
- IC50: 100 to 1000 nM

SMILES: Cc1nc(-c2n[nH]c3cc(F)c(F)cc23)ccc1N [Compound 53]
- IC50: 1000 to 10000 nM

SMILES: CCc1nc(-c2n[nH]c3cc(F)c(F)cc23)ccc1N [Compound 54]
- IC50: 100 to 1000 nM

SMILES: Fc1cc2[nH]nc(-c3ncc4c(n3)CCCN4)c2cc1F [Compound 55]
- IC50: > 10000 nM

SMILES: Fc1cc2[nH]nc(-c3cc4c(cn3)NCCC4)c2cc1F [Compound 56]
- IC50: 1000 to 10000 nM

SMILES: c1ccc2c(-c3cnc4c(c3)NCCC4)n[nH]c2c1 [Compound 57]
- IC50: > 10000 nM

SMILES: Fc1cc2[nH]nc(-c3cnc4c(n3)CCCN4)c2cc1F [Compound 58]
- IC50: > 10000 nM

SMILES: Cc1cc(-c2n[nH]c3cc(F)c(F)cc23)nc2c1NCCC2 [Compound 59]
- IC50: 100 to 1000 nM

SMILES: CC1(C)CCNc2cnc(-c3n[nH]c4cc(F)c(F)cc34)cc21 [Compound 60]
- IC50: > 10000 nM

SMILES: FC(F)(F)c1ccc(-c2n[nH]c3ccccc23)nc1 [Compound 61]
- IC50: 1000 to 10000 nM

SMILES: Fc1ccc(-c2n[nH]c3ccccc23)nc1 [Compound 62]
- IC50: 1000 to 10000 nM

SMILES: N#Cc1cccc2c(-c3ccc4ccc(F)cc4n3)n[nH]c12 [Compound 63]
- IC50: < 100 nM

SMILES: c1ccc2c(-c3ccc(N4CCNCC4)cn3)n[nH]c2c1 [Compound 64]
- IC50: > 10000 nM

SMILES: CN1CCN(c2ccc(-c3n[nH]c4ccccc34)nc2)CC1 [Compound 65]
- IC50: > 10000 nM

SMILES: c1ccc2c(-c3cc(N4CCNCC4)ccn3)n[nH]c2c1 [Compound 66]
- IC50: > 10000 nM

SMILES: CN1CCN(c2ccnc(-c3n[nH]c4ccccc34)c2)CC1 [Compound 67]
- IC50: > 10000 nM

SMILES: CN1CCN(c2cccc(-c3n[nH]c4ccccc34)n2)CC1 [Compound 68]
- IC50: > 10000 nM

SMILES: Fc1cc2[nH]nc(-c3ccc4c(n3)OCCN4)c2cc1F [Compound 69]
- IC50: > 10000 nM

SMILES: CC1CNc2ccc(-c3n[nH]c4cc(F)c(F)cc34)nc2O1 (stereo not shown) [Compound 70]
- IC50: > 10000 nM

SMILES: CC1(C)NCc2ccc(-c3n[nH]c4cc(F)c(F)cc34)nc21 [Compound 71]
- IC50: > 10000 nM

SMILES: CC(C)(O)c1ccc(-c2n[nH]c3cc(F)c(F)cc23)nc1 [Compound 72]
- IC50: > 10000 nM

SMILES: CC(C)(O)c1ccc(-c2n[nH]c3cc(F)c(F)cc23)cn1 [Compound 73]
- IC50: > 10000 nM

SMILES: Fc1cc2[nH]nc(-c3ccc4c(n3)NCCO4)c2cc1F [Compound 74]
- IC50: 1000 to 10000 nM

SMILES: CN1CCOc2ccc(-c3n[nH]c4cc(F)c(F)cc34)nc21 [Compound 75]
- IC50: 1000 to 10000 nM

SMILES: CC(C)N1CCOc2ccc(-c3n[nH]c4cc(F)c(F)cc34)nc21 [Compound 76]
- IC50: 1000 to 10000 nM

SMILES: CC1(C)CCNc2ccc(-c3n[nH]c4ccccc34)nc21 [Compound 77]
- IC50: 100 to 1000 nM
